From patent publication US20230021483A1, “[…] […] METHOD AND CLASSIFICATION OF PHARMACEUTICAL COMPONENTS BY USING TRANSCRIPTOMES” (National Institutes of Biomedical Innovation, Health and …, priority 2016, published 2023)
“Also recorded” adds a separate entry of the source.

System: preferentially upregulated genes in LV, SP, LN
Assay: Z-score-based differential gene expression analysis (adjuvant group- or adjuvant-associated genes, 40 module mapping, TargetMine annotation)
Format: in vivo, C57BL/6 mice
Details: for Shisa5 1423986_a_at (Group G1, Modules 20) / Shisa5 1437503_a_at (Group G1, Modules 20) / Stat1 1450033_a_at (Group G1, Modules 20) / Stat1 1450034_at (Group G1, Modules 20) / Tdrd7 1426716_at (Group G1, Modules 20) / Tor1aip2 1418115_s_at (Group G1, Modules 20) / Tor1aip2 1418116_at (Group G1, Modules 20) / Tor1aip2 1435526_at (Group G1, Modules 20) / Trim12a 1437432_a_at (Group G1, Modules 20) / Uba7 1426970_a_at (Group G1, Modules 20) / Adar 1425405_a_at (Group G1, Modules 20) / Adar 1434268_at (Group G1, Modules 20) / Ddx58 1436562_at (Group G1, Modules 20) / Ddx58 1456890_at (Group G1, Modules 20) / Eif2ak2 1422005_at (Group G1, Modules 20) / G3bp2 1421323_a_at (Group G1, Modules 20) / Gm9706///Isg15 1431591_s_at (Group G1, Modules 20) / H2-T10///H2-T22///H2-T9 1449875_s_at (Group G1, Modules 20) / Ifih1 1426276_at (Group G1, Modules 20) / Ifit1 1450783_at (Group G1, Modules 20) / Ifit3 1449025_at (Group G1, Modules 20) / Irf7 1417244_a_at (Group G1, Modules 20) / Irgm1 1418825_at (Group G1, Modules 20) / Mndal 1426906_at (Group G1, Modules 20) / Pml 1448757_at (Group G1, Modules 20) / Pml 1456103_at (Group G1, Modules 20) / Rnf213 1455500_at (Group G1, Modules 20) / Rsad2 1436058_at (Group G1, Modules 20): ID, LV
How it was run: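 Per-sample fold-change values converted to gene-wise z-scores within each organ's data set, then triplicate z-scores summed per adjuvant. Genes with summed score >3 taken as preferentially expressed; gene groups defined by combined per-adjuvant z-score thresholds (z>1 to z>3) specific to each organ.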

SMILES: Nc1nc2c(ncn2[C@@H]2O[C@@H]3COP(=O)(O)O[C@H]4[C@@H](O)[C@H](n5cnc6c(=O)[nH]c(N)nc65)O[C@@H]4COP(=O)(O)O[C@H]3[C@H]2O)c(=O)[nH]1 [cdiGMP, Cyclic diguanylate monophosphate]
- Shisa5 1423986_a_at (Group G1, Modules 20) (sample x1): 0.72
- Shisa5 1437503_a_at (Group G1, Modules 20) (sample x1): 1.05
- Stat1 1450033_a_at (Group G1, Modules 20) (sample x1): 1.49
- Stat1 1450034_at (Group G1, Modules 20) (sample x1): 0.88
- Tdrd7 1426716_at (Group G1, Modules 20) (sample x1): 1.47
- Tor1aip2 1418115_s_at (Group G1, Modules 20) (sample x1): 1.81
- Tor1aip2 1418116_at (Group G1, Modules 20) (sample x1): 1.58
- Tor1aip2 1435526_at (Group G1, Modules 20) (sample x1): 0.94
- Trim12a 1437432_a_at (Group G1, Modules 20) (sample x1): 0.73
- Uba7 1426970_a_at (Group G1, Modules 20) (sample x1): 0.53
- Adar 1425405_a_at (Group G1, Modules 20) (sample x2): 1.67
- Adar 1434268_at (Group G1, Modules 20) (sample x2): 1.83
- Ddx58 1436562_at (Group G1, Modules 20) (sample x2): 0.88
- Ddx58 1456890_at (Group G1, Modules 20) (sample x2): 1.45
- Eif2ak2 1422005_at (Group G1, Modules 20) (sample x2): 1.38
- G3bp2 1421323_a_at (Group G1, Modules 20) (sample x2): 1.5
- Gm9706///Isg15 1431591_s_at (Group G1, Modules 20) (sample x2): 0.94
- H2-T10///H2-T22///H2-T9 1449875_s_at (Group G1, Modules 20) (sample x2): 1.04
- Ifih1 1426276_at (Group G1, Modules 20) (sample x2): 1.09
- Ifit1 1450783_at (Group G1, Modules 20) (sample x2): 2.28
- Ifit3 1449025_at (Group G1, Modules 20) (sample x2): 1.75
- Irf7 1417244_a_at (Group G1, Modules 20) (sample x2): 1.21
- Irgm1 1418825_at (Group G1, Modules 20) (sample x2): 1.29
- Mndal 1426906_at (Group G1, Modules 20) (sample x2): 2.45
- Pml 1448757_at (Group G1, Modules 20) (sample x2): 1.57
- Pml 1456103_at (Group G1, Modules 20) (sample x2): 1.3
- Rnf213 1455500_at (Group G1, Modules 20) (sample x2): 2.08
- Rsad2 1436058_at (Group G1, Modules 20) (sample x2): 2.41
- Shisa5 1423986_a_at (Group G1, Modules 20) (sample x2): 1.07
- Shisa5 1437503_a_at (Group G1, Modules 20) (sample x2): 1.12
- Stat1 1450033_a_at (Group G1, Modules 20) (sample x2): 1.44
- Stat1 1450034_at (Group G1, Modules 20) (sample x2): 1.02
- Tdrd7 1426716_at (Group G1, Modules 20) (sample x2): 1.15
- Tor1aip2 1418115_s_at (Group G1, Modules 20) (sample x2): 1.67
- Tor1aip2 1418116_at (Group G1, Modules 20) (sample x2): 1.33
- Tor1aip2 1435526_at (Group G1, Modules 20) (sample x2): 0.83
- Trim12a 1437432_a_at (Group G1, Modules 20) (sample x2): 0.83
- Uba7 1426970_a_at (Group G1, Modules 20) (sample x2): 1.46
- Adar 1425405_a_at (Group G1, Modules 20) (sample x3): 1.66
- Adar 1434268_at (Group G1, Modules 20) (sample x3): 2.95
- Ddx58 1436562_at (Group G1, Modules 20) (sample x3): 1.49
- Ddx58 1456890_at (Group G1, Modules 20) (sample x3): 2.07
- Eif2ak2 1422005_at (Group G1, Modules 20) (sample x3): 1.93
- G3bp2 1421323_a_at (Group G1, Modules 20) (sample x3): 2.34
- Gm9706///Isg15 1431591_s_at (Group G1, Modules 20) (sample x3): 2.02
- H2-T10///H2-T22///H2-T9 1449875_s_at (Group G1, Modules 20) (sample x3): 2.06
- Ifih1 1426276_at (Group G1, Modules 20) (sample x3): 1.65
- Ifit1 1450783_at (Group G1, Modules 20) (sample x3): 2.4
- Ifit3 1449025_at (Group G1, Modules 20) (sample x3): 2.34
- Irf7 1417244_a_at (Group G1, Modules 20) (sample x3): 1.92
- Irgm1 1418825_at (Group G1, Modules 20) (sample x3): 1.81
- Mndal 1426906_at (Group G1, Modules 20) (sample x3): 2.76
- Pml 1448757_at (Group G1, Modules 20) (sample x3): 2.16
- Pml 1456103_at (Group G1, Modules 20) (sample x3): 2.58
- Rnf213 1455500_at (Group G1, Modules 20) (sample x3): 3.16
- Rsad2 1436058_at (Group G1, Modules 20) (sample x3): 2.39
- Shisa5 1423986_a_at (Group G1, Modules 20) (sample x3): 1.57
- Shisa5 1437503_a_at (Group G1, Modules 20) (sample x3): 1.32
- Stat1 1450033_a_at (Group G1, Modules 20) (sample x3): 2.11
- Stat1 1450034_at (Group G1, Modules 20) (sample x3): 2.07
- Tdrd7 1426716_at (Group G1, Modules 20) (sample x3): 2.22
- Tor1aip2 1418115_s_at (Group G1, Modules 20) (sample x3): 2.42
- Tor1aip2 1418116_at (Group G1, Modules 20) (sample x3): 2.19
- Tor1aip2 1435526_at (Group G1, Modules 20) (sample x3): 1.54
- Trim12a 1437432_a_at (Group G1, Modules 20) (sample x3): 1.46
- Uba7 1426970_a_at (Group G1, Modules 20) (sample x3): 1.41
- interferon induction relative to adjuvants targeting the same receptor (LN, z-scores and 40 module mapping): strongest interferon inducer; also recorded: induced more interferon responses in vivo than the other sting ligands
- preference, 1417252_at Ptgs2 (among cdiGMP/cGAMP/DMXAA, LN): cdiGMP
- preference, 1417263_at Ptgs2 (among cdiGMP/cGAMP/DMXAA, LN): cdiGMP
- preference, 1418424_at Tnfaip6 (among cdiGMP/cGAMP/DMXAA, LN): cdiGMP
- preference, 1419132_at Tfr2 (among cdiGMP/cGAMP/DMXAA, LN): cdiGMP
- preference, 1419508_at Ripk1 (among cdiGMP/cGAMP/DMXAA, LN): cdiGMP
- preference, 1419534_at Olr1 (among cdiGMP/cGAMP/DMXAA, LN): cdiGMP
- preference, 1419721_at Niacr1 (among cdiGMP/cGAMP/DMXAA, LN): cdiGMP
- preference, 1421457_a_at Samsn1 (among cdiGMP/cGAMP/DMXAA, LN): cdiGMP
- preference, 1421473_at Il1a (among cdiGMP/cGAMP/DMXAA, LN): cdiGMP
- preference, 1421578_at Ccl4 (among cdiGMP/cGAMP/DMXAA, LN): cdiGMP
- preference, 1421679_a_at Cdkn1a (among cdiGMP/cGAMP/DMXAA, LN): cdiGMP
- preference, 1422054_a_at 5kil (among cdiGMP/cGAMP/DMXAA, LN): cdiGMP
- preference, 1422305_at Ifnb1 (among cdiGMP/cGAMP/DMXAA, LN): cdiGMP
- preference, 1423028_at Ifna2 (among cdiGMP/cGAMP/DMXAA, LN): cdiGMP
- preference, 1424638_at Cdkn1a (among cdiGMP/cGAMP/DMXAA, LN): cdiGMP
- preference, 1425687_at Cflar (among cdiGMP/cGAMP/DMXAA, LN): cdiGMP
- preference, 1425837_a_at Ccrn4l (among cdiGMP/cGAMP/DMXAA, LN): cdiGMP
- preference, 1427736_a_at Ccrl2 (among cdiGMP/cGAMP/DMXAA, LN): cdiGMP
- preference, 1428027_at LOC100653389 (among cdiGMP/cGAMP/DMXAA, LN): cdiGMP
- preference, 1428735_at Cd69 (among cdiGMP/cGAMP/DMXAA, LN): cdiGMP
- preference, 1433508_at Klf6 (among cdiGMP/cGAMP/DMXAA, LN): cdiGMP
- preference, 1434350_at Csrnp1 (among cdiGMP/cGAMP/DMXAA, LN): cdiGMP
- preference, 1436387_at C330006P03Rik///Homer1 (among cdiGMP/cGAMP/DMXAA, LN): cdiGMP
- preference, 1439349_at Sbno2 (among cdiGMP/cGAMP/DMXAA, LN): cdiGMP
- preference, 1439680_at Tnfsf10 (among cdiGMP/cGAMP/DMXAA, LN): cdiGMP
- preference, 1439981_at Tespa1 (among cdiGMP/cGAMP/DMXAA, LN): cdiGMP
- preference, 1441843_s_at 5230400M03Rik (among cdiGMP/cGAMP/DMXAA, LN): cdiGMP
- preference, 1442556_at --- (among cdiGMP/cGAMP/DMXAA, LN): cdiGMP
- preference, 1443414_at C78513 (among cdiGMP/cGAMP/DMXAA, LN): cdiGMP
- preference, 1444010_at Eif4e (among cdiGMP/cGAMP/DMXAA, LN): cdiGMP
- preference, 1444598_at --- (among cdiGMP/cGAMP/DMXAA, LN): cdiGMP
- preference, 1445534_at --- (among cdiGMP/cGAMP/DMXAA, LN): cdiGMP
- preference, 1446245_at --- (among cdiGMP/cGAMP/DMXAA, LN): cdiGMP
- preference, 1448325_at Ppp1r15a (among cdiGMP/cGAMP/DMXAA, LN): cdiGMP
- preference, 1448724_at Cish (among cdiGMP/cGAMP/DMXAA, LN): cdiGMP
- preference, 1449169_at Has2 (among cdiGMP/cGAMP/DMXAA, LN): cdiGMP
- preference, 1449311_at Bach1 (among cdiGMP/cGAMP/DMXAA, LN): cdiGMP
- preference, 1450297_at Il6 (among cdiGMP/cGAMP/DMXAA, LN): cdiGMP
- preference, 1451340_at Arid5a (among cdiGMP/cGAMP/DMXAA, LN): cdiGMP
- preference, 1453636_at Pcgf5 (among cdiGMP/cGAMP/DMXAA, LN): cdiGMP
- preference, 1453851_a_at Gadd45g (among cdiGMP/cGAMP/DMXAA, LN): cdiGMP
- preference, 1455197_at Rnd1 (among cdiGMP/cGAMP/DMXAA, LN): cdiGMP
- preference, 1455899_x_at Socs3 (among cdiGMP/cGAMP/DMXAA, LN): cdiGMP
- preference, 1457404_at Nfkbiz (among cdiGMP/cGAMP/DMXAA, LN): cdiGMP
- preference, 1457888_at --- (among cdiGMP/cGAMP/DMXAA, LN): cdiGMP
- preference, 1457944_at --- (among cdiGMP/cGAMP/DMXAA, LN): cdiGMP
- preference, 1458376_at B930025B16Rik (among cdiGMP/cGAMP/DMXAA, LN): cdiGMP
- preference, 1458589_at --- (among cdiGMP/cGAMP/DMXAA, LN): cdiGMP
- preference, 1459144_at --- (among cdiGMP/cGAMP/DMXAA, LN): cdiGMP
- adjuvant group-associated biological features (z-score selected genes, TargetMine and IPA upstream cytokine analyses): strongly associated with type I and type II interferon responses
